Measurements published in patent US10227331B2 (priority 2015, dated 2019).
Like-named read-outs stand apart in the source and are kept apart here.

Experiments:
IMP-1 = IMP-1 (Serratia marcescens, UniProt P52699); assay: biochemical; type: biochemical
Procedure, shortened: (§1)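 Enzyme activity was measured by fluorescence using CCF2-FA, a cephalosporin-linked 7-hydroxycoumarin/fluorescein substrate, with inhibitor, metallo-β-lactamase and substrate incubated together for 2 hours at 25° C. IC50 came from a 4-parameter fit of inhibition versus log inhibitor concentration.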

NDM-1 = NDM-1 (Klebsiella pneumoniae, UniProt C7C422); assay: biochemical; type: biochemical; details: CCF2-FA substrate, 2 hours at 25° C; read-out: NDM-1 IC50
Procedure, shortened: as §1

VIM-1 = VIM-1 (Pseudomonas aeruginosa (strain ATCC 15692 / DSM 22644 / CIP 104116 / JCM 14847 / LMG 12228 / 1C / PRS 101 / PAO1), UniProt A0A0F7KYQ8); assay: biochemical; details: CCF2-FA substrate, 2 hours at 25° C
Procedure, shortened: as §1

[1] = test system: Escherichia coli expressing NDM-1 (CLB30005, CLB30016); type: cell-based; details: with imipenem 1 μg/ml; 95% inhibition of bacterial growth
Procedure, shortened: (§2)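 Restoration of imipenem susceptibility (1 μg/ml imipenem) was judged by absorbance after 22–24 h at 35° C. Test compound was added to bacteria suspended 1:100 in 1.1× CAMHB from overnight blood-agar cultures.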

[2] = test system: Klebsiella pneumoniae expressing VIM-1 (IHMA599644); type: cell-based; details: with imipenem 1 μg/ml; 95% inhibition of bacterial growth
Procedure, shortened: as §2

[3] = test system: Serratia marcescens expressing IMP-1 (CL5741); type: cell-based; details: with imipenem 1 μg/ml; 95% inhibition of bacterial growth
Procedure, shortened: as §2

[4] = test system: P. aeruginosa expressing IMP-1, efflux+ (MB9798); type: cell-based, Pseudomonas aeruginosa; details: for P. aeruginosa expressing IMP-1, efflux+ (MB9798) MITC95: imipenem at 2 μg/mL, in the presence of a class A, C, D serine β-lactamase inhibitor closely related to relebactam; for Efflux ratio: ratio MITC95 PA_9798/MITC95 PA_9799
Description: (§3) The strain background is Pseudomonas aeruginosa PAO1.

[5] = test system: P. aeruginosa expressing IMP-1, efflux− (MB9799); assay: Efflux: concentration of MBL inhibitor which restores susceptibility to imipenem; type: cell-based, Pseudomonas aeruginosa; details: imipenem at 2 μg/mL, in the presence of a class A, C, D serine β-lactamase inhibitor closely related to relebactam
Description: as §3

[6] = CCF2-FA substrate, 2 hours at 25° C, read-out: IMP-1 IC50

Chain of NDM-1 (C7C422 whole entry, looked up, species assumed): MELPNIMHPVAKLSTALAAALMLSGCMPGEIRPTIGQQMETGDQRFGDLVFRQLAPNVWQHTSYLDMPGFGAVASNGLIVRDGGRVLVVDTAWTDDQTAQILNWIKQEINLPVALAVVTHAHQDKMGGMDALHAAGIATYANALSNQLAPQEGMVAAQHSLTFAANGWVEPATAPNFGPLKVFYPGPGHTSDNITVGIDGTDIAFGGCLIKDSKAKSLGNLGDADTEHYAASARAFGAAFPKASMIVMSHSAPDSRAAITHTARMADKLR
Chain of IMP-1 (P52699 whole entry, looked up, species assumed): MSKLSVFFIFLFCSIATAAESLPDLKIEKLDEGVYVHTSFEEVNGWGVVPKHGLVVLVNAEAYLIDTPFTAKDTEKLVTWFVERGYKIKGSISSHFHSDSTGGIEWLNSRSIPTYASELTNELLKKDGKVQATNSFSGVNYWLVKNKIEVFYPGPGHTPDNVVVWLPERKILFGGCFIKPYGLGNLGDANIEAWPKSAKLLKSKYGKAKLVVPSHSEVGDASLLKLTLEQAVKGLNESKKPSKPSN

NS(=O)(=O)c1c(S(=O)(=O)C2CNC2)ccc(-c2cccnc2N2CCOCC2)c1-c1nn[nH]n1 [Example 220, 6-(azetidin-3-ylsulfonyl)-3-(2-morpholinopyridin-3-yl)-2-(2H-tetrazol-5-yl) benzenesulfonamide]
IC50 (IMP-1; [6]): 14.9 nM
IC50 (NDM-1): 0.901 nM
IC50 (VIM-1): 0.337 nM
Escherichia coli expressing NDM-1 (CLB30016) MITC95 [1]: 6.25 µM
Klebsiella pneumoniae expressing VIM-1 (IHMA599644) MITC95 [2]: 12.5 µM
Serratia marcescens expressing IMP-1 (CL5741) MITC95 [3]: 12.5 µM
P. aeruginosa expressing IMP-1, efflux+ (MB9798) MITC95 [4]: 100 µM
Efflux ratio [4]: 32.00
P. aeruginosa expressing IMP-1, efflux− (MB9799) MITC95 [5]: 3.125 µM

N=C(N)Nc1ccccc1-c1ccc(S(=O)(=O)C2CNC2)c(S(N)(=O)=O)c1-c1nn[nH]n1 [Example 221, 4-(azetidin-3-ylsulfonyl)-2′-guanidino-2-(2H-tetrazol-5-yl)-[1,1′-biphenyl]-3-sulfonamide]
IC50 (IMP-1; [6]): 44 nM
IC50 (NDM-1): 5.13 nM
IC50 (VIM-1): 6.95 nM
Escherichia coli expressing NDM-1 (CLB30016) MITC95 [1]: 6.25 µM
Klebsiella pneumoniae expressing VIM-1 (IHMA599644) MITC95 [2]: 12.5 µM
Serratia marcescens expressing IMP-1 (CL5741) MITC95 [3]: 12.5 µM
P. aeruginosa expressing IMP-1, efflux+ (MB9798) MITC95 [4]: 50 µM
Efflux ratio [4]: 16.00
P. aeruginosa expressing IMP-1, efflux− (MB9799) MITC95 [5]: 3.125 µM

NS(=O)(=O)c1c(S(=O)(=O)C2CNC2)ccc(C2CCOCC2)c1-c1nn[nH]n1 [Example 222, 6-(azetidin-3-ylsulfonyl)-3-(tetrahydro-2H-pyran-4-yl)-2-(2H-tetrazol-5-yl)benzenesulfonamide]
IC50 (IMP-1; [6]): 4.3 nM
IC50 (NDM-1): 1.49 nM
IC50 (VIM-1): 2.45 nM
Escherichia coli expressing NDM-1 (CLB30016) MITC95 [1]: 3.125 µM
Klebsiella pneumoniae expressing VIM-1 (IHMA599644) MITC95 [2]: 3.125 µM
Serratia marcescens expressing IMP-1 (CL5741) MITC95 [3]: 3.125 µM
P. aeruginosa expressing IMP-1, efflux+ (MB9798) MITC95 [4]: 100 µM
Efflux ratio [4]: 63.98
P. aeruginosa expressing IMP-1, efflux− (MB9799) MITC95 [5]: 1.563 µM

Nc1cccc(-c2ccc(S(=O)(=O)C3CNC3)c(S(N)(=O)=O)c2-c2nn[nH]n2)n1 [Example 223, 3-(6-aminopyridin-2-yl)-6-(azetidin-3-ylsulfonyl)-2-(2H-tetrazol-5-yl)benzenesulfonamide]
IC50 (IMP-1; [6]): 10.2 nM
IC50 (NDM-1): 2.51 nM
IC50 (VIM-1): 3.16 nM
Escherichia coli expressing NDM-1 (CLB30016) MITC95 [1]: 0.7813 µM
Klebsiella pneumoniae expressing VIM-1 (IHMA599644) MITC95 [2]: 6.25 µM
Serratia marcescens expressing IMP-1 (CL5741) MITC95 [3]: 3.125 µM
P. aeruginosa expressing IMP-1, efflux+ (MB9798) MITC95 [4]: 6.25 µM
Efflux ratio [4]: 2.00
P. aeruginosa expressing IMP-1, efflux− (MB9799) MITC95 [5]: 3.125 µM

Nc1nccc(-c2ccc(S(=O)(=O)C3CNC3)c(S(N)(=O)=O)c2-c2nn[nH]n2)c1N [Example 224, 6-(azetidin-3-ylsulfonyl)-3-(2,3-diaminopyridin-4-yl)-2-(2H-tetrazol-5-yl)benzenesulfonamide]
IC50 (IMP-1; [6]): 2.58 nM
IC50 (NDM-1): 0.618 nM
IC50 (VIM-1): 1.29 nM
Escherichia coli expressing NDM-1 (CLB30016) MITC95 [1]: 0.7813 µM
Klebsiella pneumoniae expressing VIM-1 (IHMA599644) MITC95 [2]: 3.125 µM
Serratia marcescens expressing IMP-1 (CL5741) MITC95 [3]: 3.125 µM
P. aeruginosa expressing IMP-1, efflux+ (MB9798) MITC95 [4]: 3.125 µM
Efflux ratio [4]: 2.00
P. aeruginosa expressing IMP-1, efflux− (MB9799) MITC95 [5]: 1.563 µM

NCCS(=O)(=O)c1ccc(-c2cccc3nc(N)nn23)c(-c2nn[nH]n2)c1S(N)(=O)=O [Example 225, 3-(2-amino-[1,2,4]triazolo[1,5-a]pyridin-5-yl)-6-((2-aminoethyl)sulfonyl)-2-(2H-tetrazol-5-yl)benzenesulfonamide]
IC50 (IMP-1; [6]): 1.97 nM
IC50 (NDM-1): 0.164 nM
IC50 (VIM-1): 0.229 nM
Escherichia coli expressing NDM-1 (CLB30016) MITC95 [1]: 1.563 µM
Klebsiella pneumoniae expressing VIM-1 (IHMA599644) MITC95 [2]: 3.125 µM
Serratia marcescens expressing IMP-1 (CL5741) MITC95 [3]: 1.563 µM
P. aeruginosa expressing IMP-1, efflux+ (MB9798) MITC95 [4]: 3.125 µM
Efflux ratio [4]: 2.00
P. aeruginosa expressing IMP-1, efflux− (MB9799) MITC95 [5]: 1.563 µM

NS(=O)(=O)c1c(SC2CCNCC2)ccc(-c2ccc(C3CCNCC3)cc2)c1-c1nnn[nH]1 [Example 226, 4′-(piperidin-4-yl)-4-(piperidin-4-ylthio)-2-(1H-tetrazol-5-yl)-[1,1′-biphenyl]-3-sulfonamide]
IC50 (IMP-1; [6]): 35.7 nM
IC50 (NDM-1): 15.1 nM
IC50 (VIM-1): 48.5 nM
Escherichia coli expressing NDM-1 (CLB30016) MITC95 [1]: 1.563 µM
Klebsiella pneumoniae expressing VIM-1 (IHMA599644) MITC95 [2]: 6.25 µM
Serratia marcescens expressing IMP-1 (CL5741) MITC95 [3]: 3.125 µM
P. aeruginosa expressing IMP-1, efflux+ (MB9798) MITC95 [4]: 25 µM
Efflux ratio [4]: 32.00
P. aeruginosa expressing IMP-1, efflux− (MB9799) MITC95 [5]: 0.7813 µM

NS(=O)(=O)c1c([S+]([O-])C2CCNCC2)ccc(-c2ccc(C3CCNCC3)cc2)c1-c1nnn[nH]1 (stereo not drawn) [Example 227, 4′-(piperidin-4-yl)-4-(piperidin-4-ylsulfinyl)-2-(1H-tetrazol-5-yl)-[1,1′-biphenyl]-3-sulfonamide]
IC50 (IMP-1; [6]): 5.9 nM
IC50 (NDM-1): 1.95 nM
IC50 (VIM-1): 1.18 nM
Escherichia coli expressing NDM-1 (CLB30016) MITC95 [1]: 3.125 µM
Klebsiella pneumoniae expressing VIM-1 (IHMA599644) MITC95 [2]: 6.25 µM
Serratia marcescens expressing IMP-1 (CL5741) MITC95 [3]: 6.25 µM
P. aeruginosa expressing IMP-1, efflux+ (MB9798) MITC95 [4]: 3.125 µM
Efflux ratio [4]: 2.00
P. aeruginosa expressing IMP-1, efflux− (MB9799) MITC95 [5]: 1.563 µM

NS(=O)(=O)c1c(S(=O)(=O)C2CCNCC2)ccc(-c2ccc(C3CCNCC3)cc2)c1-c1nnn[nH]1 [Example 228, 4′-(piperidin-4-yl)-4-(piperidin-4-ylsulfonyl)-2-(1H-tetrazol-5-yl)-[1,1′-biphenyl]-3-sulfonamide]
IC50 (IMP-1; [6]): 0.521 nM
IC50 (NDM-1): 0.985 nM
IC50 (VIM-1): 0.314 nM
Escherichia coli expressing NDM-1 (CLB30016) MITC95 [1]: 1.563 µM
Klebsiella pneumoniae expressing VIM-1 (IHMA599644) MITC95 [2]: 3.125 µM
Serratia marcescens expressing IMP-1 (CL5741) MITC95 [3]: 3.125 µM
P. aeruginosa expressing IMP-1, efflux+ (MB9798) MITC95 [4]: 0.7813 µM
Efflux ratio [4]: 1.00
P. aeruginosa expressing IMP-1, efflux− (MB9799) MITC95 [5]: 0.7813 µM

Cn1cc(C(=O)C(F)(F)F)c2c(-c3ccc(S(=O)(=O)C4CNC4)c(S(N)(=O)=O)c3-c3nnn[nH]3)cccc21 [Example 229, 6-(azetidin-3-ylsulfonyl)-3-(1-methyl-3-(2,2,2-trifluoroacetyl)-1H-indol-4-yl)-2-(1H-tetrazol-5-yl)benzenesulfonamide]
IC50 (IMP-1): 1.74 nM
IC50 (NDM-1): 0.139 nM
IC50 (VIM-1): 0.474 nM
Escherichia coli expressing NDM-1 (CLB30016) MITC95 [1]: 6.25 µM
Klebsiella pneumoniae expressing VIM-1 (IHMA599644) MITC95 [2]: 12.5 µM
Serratia marcescens expressing IMP-1 (CL5741) MITC95 [3]: 6.25 µM
P. aeruginosa expressing IMP-1, efflux+ (MB9798) MITC95 [4]: 25 µM
Efflux ratio [4]: 4.00
P. aeruginosa expressing IMP-1, efflux− (MB9799) MITC95 [5]: 6.25 µM

COc1ccc(Cc2cc3c(-c4ccc(S(=O)(=O)C5CNC5)c(S(N)(=O)=O)c4-c4nnn[nH]4)cccc3n2C)cc1 [Example 230, 6-(azetidin-3-ylsulfonyl)-3-(2-(4-methoxybenzyl)-1-methyl-1H-indol-4-yl)-2-(1H-tetrazol-5-yl)benzenesulfonamide]
IC50 (IMP-1; [6]): 0.436 nM
IC50 (NDM-1): 0.11 nM
IC50 (VIM-1): 0.356 nM
Escherichia coli expressing NDM-1 (CLB30016) MITC95 [1]: 6.25 µM
Klebsiella pneumoniae expressing VIM-1 (IHMA599644) MITC95 [2]: 25 µM
Serratia marcescens expressing IMP-1 (CL5741) MITC95 [3]: 6.25 µM
P. aeruginosa expressing IMP-1, efflux+ (MB9798) MITC95 [4]: 100 µM
Efflux ratio [4]: 32.00
P. aeruginosa expressing IMP-1, efflux− (MB9799) MITC95 [5]: 3.125 µM

COc1ccc(Cc2cc3c(-c4ccc(S(=O)(=O)C5CNC5)c(S(N)(=O)=O)c4-c4nnn[nH]4)cccc3[nH]2)cc1 [Example 231, 6-(azetidin-3-ylsulfonyl)-3-(2-(4-methoxybenzyl)-1H-indol-4-yl)-2-(1H-tetrazol-5-yl)benzenesulfonamide]
IC50 (IMP-1; [6]): 0.717 nM
IC50 (NDM-1): 0.102 nM
IC50 (VIM-1): 0.558 nM
Escherichia coli expressing NDM-1 (CLB30016) MITC95 [1]: 6.25 µM
Klebsiella pneumoniae expressing VIM-1 (IHMA599644) MITC95 [2]: 12.5 µM
Serratia marcescens expressing IMP-1 (CL5741) MITC95 [3]: 6.25 µM
P. aeruginosa expressing IMP-1, efflux+ (MB9798) MITC95 [4]: 25 µM
Efflux ratio [4]: 8.00
P. aeruginosa expressing IMP-1, efflux− (MB9799) MITC95 [5]: 3.125 µM

Nc1nc2c(-c3ccc(S(=O)(=O)c4ccccc4)c(S(N)(=O)=O)c3-c3nnn[nH]3)cccc2s1 [Example 232, 3-(2-aminobenzo[d]thiazol-4-yl)-6-(phenylsulfonyl)-2-(1H-tetrazol-5-yl)benzenesulfonamide]
IC50 (IMP-1; [6]): 0.586 nM
IC50 (NDM-1): 0.583 nM
IC50 (VIM-1): 0.539 nM
Escherichia coli expressing NDM-1 (CLB30016) MITC95 [1]: 6.25 µM
Klebsiella pneumoniae expressing VIM-1 (IHMA599644) MITC95 [2]: 12.5 µM
Serratia marcescens expressing IMP-1 (CL5741) MITC95 [3]: 3.125 µM
P. aeruginosa expressing IMP-1, efflux+ (MB9798) MITC95 [4]: 12.5 µM
Efflux ratio [4]: 8.00
P. aeruginosa expressing IMP-1, efflux− (MB9799) MITC95 [5]: 1.563 µM
